The nature of data set [1]: Solubility in PBS. It is filed as physicochemical. The gist of the method:
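The PBS solution was ultracentrifuged and the supernatant analyzed by HPLC. Its peak area was divided by that of a 50 μM peptide DMSO reference injection and multiplied by 50 uM to give solubility.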

For data set [2], the target named is T1, beta-catenin/TCF4 engagement (Homo sapiens, UniProt P35222).
T1 construct: expressed in transfected cells; host or cells: HEK293
T1 sequence (P35222 1-781): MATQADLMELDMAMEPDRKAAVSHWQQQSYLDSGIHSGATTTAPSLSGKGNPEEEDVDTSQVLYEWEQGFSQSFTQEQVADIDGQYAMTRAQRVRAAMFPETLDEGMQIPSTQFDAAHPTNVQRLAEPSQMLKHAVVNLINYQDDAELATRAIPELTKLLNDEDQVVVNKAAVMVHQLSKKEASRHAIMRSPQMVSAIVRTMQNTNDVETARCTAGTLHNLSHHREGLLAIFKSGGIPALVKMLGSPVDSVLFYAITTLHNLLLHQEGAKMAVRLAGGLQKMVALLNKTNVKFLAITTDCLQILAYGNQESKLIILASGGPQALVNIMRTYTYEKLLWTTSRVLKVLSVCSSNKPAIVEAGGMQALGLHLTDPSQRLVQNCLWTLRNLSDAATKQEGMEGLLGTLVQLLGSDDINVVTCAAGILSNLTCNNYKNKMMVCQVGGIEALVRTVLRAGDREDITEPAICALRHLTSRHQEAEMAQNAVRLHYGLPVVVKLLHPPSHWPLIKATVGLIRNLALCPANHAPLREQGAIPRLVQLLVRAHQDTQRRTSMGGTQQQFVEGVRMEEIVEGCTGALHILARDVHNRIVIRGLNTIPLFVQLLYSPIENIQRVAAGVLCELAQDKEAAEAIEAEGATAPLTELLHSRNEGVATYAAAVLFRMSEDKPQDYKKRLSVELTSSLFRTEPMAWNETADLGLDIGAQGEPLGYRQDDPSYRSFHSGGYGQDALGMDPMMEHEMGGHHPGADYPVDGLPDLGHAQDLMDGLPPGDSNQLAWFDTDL
The data set can be described thus: Nano-BRET target engagement assay (B-cat-Halo & TCF4-Luc in HEK293 cells). The data set is classed as cell-based. The following applies: absolute IC50; read-out: NanoBRET Abs IC50.

The target in data set [3] is T2, full-length beta-Catenin (Uniprot ID P35222) (Homo sapiens, UniProt P35222).
T2 construct: 10 nM full-length beta-Catenin (Uniprot ID P35222)
T2 sequence (P35222 1-781): T1 sequence (P35222 1-781)
Nature of the data set: Fluorescence polarization IC50 (beta-catenin / 5FAM-TCF4 10-53 competition). It is filed as binding. The following applies: fluorescence polarization; read-out: beta-Catenin FP IC50.

In brackets after ≈: the same amount, converted by molar mass. Read-outs that look alike come from different tables or passages of the source.

The compound `CC(=O)N1CCC[C@]12CC=CCCCC1(CCCC=CCCCOC(=O)N3CC[C@@](C(=O)N[C@@H](Cc4ccccc4F)C(=O)N[C@@H](Cc4csc5ccccc45)C(=O)N[C@@H](CCC(N)=O)C(N)=O)(C3)NC(=O)[C@H](CC(C)C)NC(=O)[C@H](Cc3ccccc3)NC(=O)[C@H](C)NC(=O)[C@H](C)NC(=O)[C@H](CC(=O)O)NC(=O)[C@H](CC(=O)O)NC1=O)NC(=O)[C@H](CC(C)(C)C)NC(=O)[C@H](CC(=O)O)NC2=O` (stereo partly drawn) [I-1321, Ac-PL3-Asp-Npg-B5-Asp-Asp-Ala-Ala-Phe-Leu-PyrS2-2FF-BztA-Gln-NH2] had a Solubility in data set [1] (Solubility (uM)) of 48 µM (≈ 92.6 µg/mL). In addition, the figures for the half-inhibitory concentration (IC50) in data set [2] and in data set [3] were 10900 nM and 8 nM, respectively.
In the same order, the values of `CC(=O)N1CCC[C@]12CC=CCCCC1(CCCC=CCCCOC(=O)N3CC[C@@](C(=O)N[C@@H](Cc4ccccc4F)C(=O)N[C@@H](Cc4csc5ccccc45)C(=O)N[C@@H](CCC(N)=O)C(N)=O)(C3)NC(=O)[C@H](Cc3ccccc3)NC(=O)[C@H](Cc3ccccc3)NC(=O)[C@H](C)NC(=O)[C@H](C)NC(=O)[C@H](CC(=O)O)NC(=O)[C@H](CC(=O)O)NC1=O)NC(=O)[C@H](CC(C)(C)C)NC(=O)[C@H](CC(=O)O)NC2=O` (stereo partly drawn) [I-1322, Ac-PL3-Asp-Npg-B5-Asp-Asp-Ala-Ala-Phe-Phe-PyrS2-2FF-BztA-Gln-NH2] are 33 µM (≈ 64.8 µg/mL), 9100 nM and 11 nM.
In data set [1] (Solubility (uM)), `CC(=O)N1CCC[C@]12CC=CCCCC1(CCCC=CCCCOC(=O)N3CC[C@@](C(=O)N[C@@H](Cc4ccccc4Br)C(=O)N[C@@H](Cc4csc5ccccc45)C(=O)N[C@@H](CCC(N)=O)C(N)=O)(C3)NC(=O)[C@H](CC(N)=O)NC(=O)[C@H](Cc3ccccc3)NC(=O)[C@H](C)NC(=O)[C@H](C)NC(=O)[C@H](CC(=O)O)NC(=O)[C@H](CC(=O)O)NC1=O)NC(=O)[C@H](CC(C)(C)C)NC(=O)[C@H](CC(=O)O)NC2=O` (stereo partly drawn) [I-1323, Ac-PL3-Asp-Npg-B5-Asp-Asp-Ala-Ala-Phe-Asn-PyrS2-2BrF-BztA-Gln-NH2] had a Solubility of 48 µM (≈ 95.6 µg/mL). For the same compound, the values for the IC50 in data set [2] and in data set [3] were 11700 nM and 6 nM, respectively.
Turning to `CC(=O)N1CCC[C@]12CC=CCCCC1(CCCC=CCCCOC(=O)N3CC[C@@](C(=O)N[C@@H](Cc4ccsc4)C(=O)N[C@@H](Cc4csc5ccccc45)C(=O)N[C@@H](CCC(N)=O)C(N)=O)(C3)NC(=O)[C@H](Cc3ccccc3C(F)(F)F)NC(=O)[C@H](Cc3ccccc3)NC(=O)[C@H](C)NC(=O)[C@H](C)NC(=O)[C@H](CC(=O)O)NC(=O)[C@H](CC(=O)O)NC1=O)NC(=O)[C@H](CC(C)(C)C)NC(=O)[C@H](CC(=O)O)NC2=O` (stereo partly drawn) [I-1363, Ac-PL3-Asp-Npg-B5-Asp-Asp-Ala-Ala-Phe-2F3MeF-PyrS2-3Thi-BztA-Gln-NH2], in data set [1] (Solubility (uM)), the Solubility was determined as 12 µM (≈ 24.2 µg/mL). In addition, the figures for the half-maximal inhibitory concentration (IC50) in data set [2] and in data set [3] were 5500 nM and 9 nM, respectively.
In the same order, the values of `CC(=O)N1CCC[C@]12CC=CCCCC1(CCCC=CCCCOC(=O)N3CC[C@@](C(=O)N[C@@H](Cc4ccsc4)C(=O)N[C@@H](Cc4csc5ccccc45)C(=O)N[C@@H](CCC(N)=O)C(N)=O)(C3)NC(=O)[C@H](Cc3cccc(C(F)(F)F)c3)NC(=O)[C@H](Cc3ccccc3)NC(=O)[C@H](C)NC(=O)[C@H](C)NC(=O)[C@H](CC(=O)O)NC(=O)[C@H](CC(=O)O)NC1=O)NC(=O)[C@H](CC(C)(C)C)NC(=O)[C@H](CC(=O)O)NC2=O` (stereo partly drawn) [I-1364, Ac-PL3-Asp-Npg-B5-Asp-Asp-Ala-Ala-Phe-3F3MeF-PyrS2-3Thi-BztA-Gln-NH2] are 17 µM (≈ 34.3 µg/mL), 10500 nM and 9 nM.
`CC(=O)N1CCC[C@]12CC=CCCCC1(CCCC=CCCCOC(=O)N3CC[C@@](C(=O)N[C@@H](Cc4ccsc4)C(=O)N[C@@H](Cc4csc5ccccc45)C(=O)N[C@@H](CCC(N)=O)C(N)=O)(C3)NC(=O)[C@H](Cc3ccc(C(F)(F)F)cc3)NC(=O)[C@H](Cc3ccccc3)NC(=O)[C@H](C)NC(=O)[C@H](C)NC(=O)[C@H](CC(=O)O)NC(=O)[C@H](CC(=O)O)NC1=O)NC(=O)[C@H](CC(C)(C)C)NC(=O)[C@H](CC(=O)O)NC2=O` (stereo partly drawn) [I-1365, Ac-PL3-Asp-Npg-B5-Asp-Asp-Ala-Ala-Phe-4F3MeF-PyrS2-3Thi-BztA-Gln-NH2] gave a Solubility in data set [1] (Solubility (uM)) of 22 µM (≈ 44.4 µg/mL). Moreover, the concentration for half-maximal inhibition (IC50) in data set [2] came out at 9700 nM; in data set [3], 9 nM.
For `CC(=O)N1CCC[C@]12CC=CCCCC1(CCCC=CCCCOC(=O)N3CC[C@@](C(=O)N[C@@H](Cc4ccccc4Cl)C(=O)N[C@@H](Cc4csc5ccccc45)C(=O)N[C@@H](CCC(N)=O)C(N)=O)(C3)NC(=O)[C@H](Cc3ccccc3)NC(=O)[C@H](Cc3ccccc3)NC(=O)[C@H](C)NC(=O)[C@H](C)NC(=O)[C@H](CC(=O)O)NC(=O)[C@H](CC(=O)O)NC1=O)NC(=O)[C@H](CC(C)(C)C)NC(=O)[C@H](CC(=O)O)NC2=O` (stereo partly drawn) [I-1366, Ac-PL3-Asp-Npg-B5-Asp-Asp-Ala-Ala-Phe-Phe-PyrS2-2C1F-BztA-Gln-NH2], the “Solubility” value in data set [1] was determined as 10 µM (≈ 19.8 µg/mL). For the same compound, the IC50 in data set [2] turned out to be 7500 nM; in data set [3] it was 7 nM.
In the same order, the values of `CC(=O)N1CCC[C@]12CC=CCCCC1(CCCC=CCCCOC(=O)N3CC[C@@](C(=O)N[C@@H](Cc4ccccc4Cl)C(=O)N[C@@H](Cc4csc5ccccc45)C(=O)N[C@@H](CCC(N)=O)C(N)=O)(C3)NC(=O)[C@H](Cc3ccccc3C(F)(F)F)NC(=O)[C@H](Cc3ccccc3)NC(=O)[C@H](C)NC(=O)[C@H](C)NC(=O)[C@H](CC(=O)O)NC(=O)[C@H](CC(=O)O)NC1=O)NC(=O)[C@H](CC(C)(C)C)NC(=O)[C@H](CC(=O)O)NC2=O` (stereo partly drawn) [I-1367, Ac-PL3-Asp-Npg-B5-Asp-Asp-Ala-Ala-Phe-2F3MeF-PyrS2-2C1F-BztA-Gln-NH2] are 10 µM (≈ 20.5 µg/mL), 7800 nM and 31 nM.
In the same order, the values of `CC(=O)N1CCC[C@]12CC=CCCCC1(CCCC=CCCCOC(=O)N3CC[C@@](C(=O)N[C@@H](Cc4ccccc4Cl)C(=O)N[C@@H](Cc4csc5ccccc45)C(=O)N[C@@H](CCC(N)=O)C(N)=O)(C3)NC(=O)[C@H](Cc3cccc(C(F)(F)F)c3)NC(=O)[C@H](Cc3ccccc3)NC(=O)[C@H](C)NC(=O)[C@H](C)NC(=O)[C@H](CC(=O)O)NC(=O)[C@H](CC(=O)O)NC1=O)NC(=O)[C@H](CC(C)(C)C)NC(=O)[C@H](CC(=O)O)NC2=O` (stereo partly drawn) [I-1368, Ac-PL3-Asp-Npg-B5-Asp-Asp-Ala-Ala-Phe-3F3MeF-PyrS2-2C1F-BztA-Gln-NH2] are 10 µM (≈ 20.5 µg/mL), 14200 nM and 44 nM.
For `CC(=O)N1CCC[C@]12CC=CCCCC1(CCCC=CCCCOC(=O)N3CC[C@@](C(=O)N[C@@H](Cc4ccccc4Cl)C(=O)N[C@@H](Cc4csc5ccccc45)C(=O)N[C@@H](CCC(N)=O)C(N)=O)(C3)NC(=O)[C@H](Cc3ccc(C(F)(F)F)cc3)NC(=O)[C@H](Cc3ccccc3)NC(=O)[C@H](C)NC(=O)[C@H](C)NC(=O)[C@H](CC(=O)O)NC(=O)[C@H](CC(=O)O)NC1=O)NC(=O)[C@H](CC(C)(C)C)NC(=O)[C@H](CC(=O)O)NC2=O` (stereo partly drawn) [I-1369, Ac-PL3-Asp-Npg-B5-Asp-Asp-Ala-Ala-Phe-4F3MeF-PyrS2-2C1F-BztA-Gln-NH2], in data set [1], the “Solubility” value came to 10 µM (≈ 20.5 µg/mL). For the same compound, the values for the IC50 in data set [2] and in data set [3] were 9900 nM and 29 nM, respectively.
The like results for `CC(=O)N1CCC[C@]12CC=CCCCC1(CCCC=CCCCOC(=O)N3CC[C@@](C(=O)N[C@@H](Cc4ccsc4)C(=O)N[C@@H](Cc4csc5ccccc45)C(=O)N[C@H](CO)[C@@H](C)O)(C3)NC(=O)[C@H](Cc3ccccc3C(F)(F)F)NC(=O)[C@H](Cc3ccccc3)NC(=O)[C@H](C)NC(=O)[C@H](C)NC(=O)[C@H](CC(=O)O)NC(=O)[C@H](CC(=O)O)NC1=O)NC(=O)[C@H](CC(C)(C)C)NC(=O)[C@H](CC(=O)O)NC2=O` (stereo partly drawn) [I-1370, Ac-PL3-Asp-Npg-B5-Asp-Asp-Ala-Ala-Phe-2F3MeF-PyrS2-3Thi-BztA-Thro1] were, in that order, 10 µM (≈ 19.8 µg/mL), 10000 nM and 18 nM.
The like results for `CC(=O)N1CCC[C@]12CC=CCCCC1(CCCC=CCCCOC(=O)N3CC[C@@](C(=O)N[C@@H](Cc4ccsc4)C(=O)N[C@@H](Cc4csc5ccccc45)C(=O)N[C@H](CO)[C@@H](C)O)(C3)NC(=O)[C@H](Cc3cccc(C(F)(F)F)c3)NC(=O)[C@H](Cc3ccccc3)NC(=O)[C@H](C)NC(=O)[C@H](C)NC(=O)[C@H](CC(=O)O)NC(=O)[C@H](CC(=O)O)NC1=O)NC(=O)[C@H](CC(C)(C)C)NC(=O)[C@H](CC(=O)O)NC2=O` (stereo partly drawn) [I-1371, Ac-PL3-Asp-Npg-B5-Asp-Asp-Ala-Ala-Phe-3F3MeF-PyrS2-3Thi-BztA-Thro1] were, in that order, 10 µM (≈ 19.8 µg/mL), 10900 nM and 22 nM.

The values are drawn from patent US20240116985A1, “STAPLED PEPTIDES AND METHODS THEREOF” (priority 2020, published 2024).
